Patent US4983597A, “Beta-lactams as anticholesterolemic agents” (Merck & Co., Inc., priority 1989, dated 1991)

molecular target: T1, HMG-CoA synthase (Rattus norvegicus, UniProt P17425); test: HMG-CoA Synthase Inhibition Assay; format: biochemical; conditions: Table VI; rat liver enzyme, 1-[14C]-acetyl-CoA incorporation
T1 construct: The livers from male Charles River CD rats (225-350 g) were homogenized; from tissue; host or cells: rat liver (male Charles River CD rats), 100,000 x g supernatant, ammonium sulfate and DEAE-52 fraction
T1 sequence (P17425 1-520): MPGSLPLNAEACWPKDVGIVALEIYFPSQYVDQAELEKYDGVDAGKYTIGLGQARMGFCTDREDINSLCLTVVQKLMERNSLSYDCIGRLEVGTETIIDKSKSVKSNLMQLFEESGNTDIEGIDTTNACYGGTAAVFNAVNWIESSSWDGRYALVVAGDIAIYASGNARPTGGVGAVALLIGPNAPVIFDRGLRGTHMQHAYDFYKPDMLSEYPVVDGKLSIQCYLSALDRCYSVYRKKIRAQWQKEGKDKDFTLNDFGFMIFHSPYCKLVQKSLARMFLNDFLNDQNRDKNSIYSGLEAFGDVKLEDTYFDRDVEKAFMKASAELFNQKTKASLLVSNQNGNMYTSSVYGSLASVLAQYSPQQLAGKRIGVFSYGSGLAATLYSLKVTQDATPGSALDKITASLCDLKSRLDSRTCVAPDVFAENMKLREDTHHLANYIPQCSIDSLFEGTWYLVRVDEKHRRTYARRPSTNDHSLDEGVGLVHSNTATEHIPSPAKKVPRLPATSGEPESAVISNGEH
Experimental: The intrinisic HMG-CoA synthase inhibition activity of the compounds of this invention is measured by the standard in vitro protocol described below:
The livers from male Charles River CD rats (225-350 g) were homogenized in 0.25 M sucrose which was adjusted with phenylmethylsulfonylfluoride (PMSF) and N-p-tosyl-1-lysine chloromethyl ketone (TLCK) so that the final concentration of each was […], respectively. The homogenate was centrifuged at 15,000× g for 20 minutes, the supernatant filtered through a fine nylon screen to remove most of the fat layer and recentrifuged at 100,000× g for 1 hour. This supernatant was removed and 1 M potassium phosphate, dithiothreitol (DTT) and ethylene glycolbis(β-aminoethyl ether)-N,N,N',N'-tetraacetic acid (EGTA) added to give a final concentration of 0.1 M (pH 7.2), 0.5 mM and 0.1 mM, respectively. Solid ammonium sulfate was added to 50% saturation to the protein solution, it was centrifuged at 15,000× g and the supernatant discarded. This precipitated protein could be stored at -70° C. for at least one month with very little loss of activity. The ammonium sulfate precipitate was dissolved in an minimal amount of 0.06 M potassium phosphate buffer (pH 7.2) containing 0.5 mM dithiothreitol and 0.1 mM EGTA (referred to as 0.06 M phosphate buffer) and dialyzed overnight against 2 liters of the same buffer to remove the ammonium sulfate and to inactivate HMG-CoA lyase [Clinkenbeard, et al., J. Biol. Chem. 250, 3108-3116(1975)].
The dialyzed extract was added to a column of DEAE-52 (Whatman) which had been equilibrated with 0.06 M phosphate buffer (10 mg of protein in 1 ml bed volume of the resin). The DEAE-cellulose was eluted with 0.06 M phosphate buffer until the optical density at 280 nm was essentially zero. This fraction contained the β-ketoacetyl-CoA thiolase activity. The HMG-CoA synthase was eluted from the column with 0.1 M phosphate buffer (pH 7.2) containing 0.5 mM DTT and […] EGTA, and was virtually free of all thiolase activity. The protein was precipitated by the addition of ammonium sulfate to give 50% saturation. This solution was stirred for 10 minutes at 4° C. and the precipitate collected by centrifugation at 15,000 rpm for 10 minutes. The supernatant was discarded and the precipitate dissolved in a minimum of 0.06 M phosphate buffer, pH 7.2 (about 10 ml) and the enzyme stored at -80° C.
HMG-CoA Synthase Inhibition Assay
Enzyme protein (ca. 24 mg) was added to a solution containing […] Tris-HCl (pH 8.0), 11.7 μM MgCl2, 1.17 μM ethylenediaminetetraacetic acid (EDTA), 0.58 μM dithiothreitol, and the indicated concentrations of the test compound (added as a 2 mg/ml solution in dimethylsulfoxide). The incubation took place in a volume of 0.085 ml at 30° in a shaking water bath. After 5 minutes, […] of a solution containing acetoacetyl-CoA and 0.1 μCi of 1-[^14 C]-acetyl-CoA was added to give a final concentrations of 0.1 and 0.4 μM, respectively. The incubation was continued for 10 more minutes and the reaction stopped by the addition of […] of the assay mixture to 0.2 ml of 6N HCl in a glass scintillation vial. The vial was heated for 1 hour at 120° after which time 0.2 ml more of 6N HCl was again added to each vial and the heating continued for another hour. Following this, 1.0 ml of 0.9% saline was added to each vial and finally 10 ml of scintillation liquid. Radioactivity was determined in a Packard Tri-Carb liquid scintillation counter. Percent inhibition is calculated by the formula: [formula]
IC50 values were determined by plotting the log of the concentration of the test compound verses the percentage inhibition and fitting a straight line to the resulting data by using the least squares method.

Point of comparison: Cc1ccc(S(=O)(=O)N2C(=O)C(C)(C)C2C=Cc2ccccc2)cc1 (stereo not shown) [Table VI c], IC50 680 nM. Against it:
- Cc1ccc(S(=O)(=O)N2C(=O)C(C)(C)C2CCc2ccccc2)cc1 (stereo not shown) [Table VI a] — 2.6-fold higher, 1800 nM
- Cc1ccc(S(=O)(=O)N2C(=O)C(C)(C)C2C(Cc2ccccc2)OC(=O)c2ccccc2)cc1 (stereo not shown) [Table VI b] — 1.7-fold lower, 400 nM
- Cc1ccc(S(=O)(=O)N2C(=O)C(C)(C)C2C2OC2c2ccccc2)cc1 (stereo not shown) [Table VI d] — 6.2-fold lower, 110 nM
